The target of one assay is T1, TrkB receptor (Mus musculus, UniProt P15209).
T1 construct: endogenous in cells; host or cells: primary hippocampal neurons from embryonic day 18 C57BL/6 mice
The assay is described as follows: TrkB phosphorylation (Tyr 706) and TrkB level in primary E18 hippocampal cells, with or without K252a. The class given is cell-based. As to conditions: K252a pretreatment 1 h (200 nM), then BDNF or peptides B-5 or B-3 for 5 min. On the procedure:
(§1) Peptides were dissolved in water in serial dilutions of 10 mM, 1 mM, 100 μM and 10 μM from which the necessary amount was added directly to the culture medium to a final concentration of 0.05 μM, 1 μM, or 10 μM. The BDNF (Peprotech, NJ, USA) was used as a reference in concentrations of 20 ng/ml (0.79 nM) and 100 ng/ml (3.95 nM). Cycloheximide (CHX) (Sigma-Aldrich, St Louis, Mo., USA) was used for blocking protein synthesis. CHX original stock was 100 mg/ml (355.4 mM) in DMSO; from a second stock of 35.54 mM in DMSO, the dilutions were made to the final concentrations of 100 μM. The K252a (CALBIOCHEM/EMD) was used to inhibit the TrkB Receptor. From a stock of 100 μM in DMSO, K252a was diluted to a final working concentration of 200 nM. The E18 primary hippocampal cells were pre-treated with CHX or K252a 1 h prior to the addition of the peptides or BDNF and a time course of these treatments for 15 min, 60 min and 2 days was studied.
(§2) Following treatment in 6-well plates, cells were washed 2× in glucose buffered saline, GBS (5.4 mM KCl, 138 mM NaCl, 22 mM glucose, and 2 mM Na—KPO pH 7.2), and then lysed by 5 min incubation on ice in 100 or 150 μl of ice-cold RIPA buffer (PBS, 1% w/v NP-40 from Fisher Scientific, 0.1% w/v SDS, and 0.5% w/v sodium desoxycholate) containing 1 mM AEBSF (Gold Biotechnology, St. Louis, Mo., USA), 10 μg/ml aprotinin (Sigma-Aldrich, St. Louis, Mo., USA), and 20 μg/ml of leupeptin and pepstatin (US Biochemicals, Cleveland, Ohio, USA), and phosphatase inhibitors: NaF, Na orthovanadate, (3-glycerophosphate, and microcystein (Sigma-Aldrich, St. Louis, Mo., USA). Extracts were prepared by collecting and pooling a minimum of 2 wells by scraping, and lysates were centrifuged at 20,000×g for 10 min at 4° C. Protein concentration of each cell lysate was determined using the BCA kit (Thermo Scientific, Rockford, Ill., USA). The lysates (7.5-20 μg total protein) were separated on 10% SDS-PAGE gels (except for BDNF where 12% gels were employed) and transferred to 0.45 μm PVDF membrane (Pall, Pensacola, Fla., USA) for probing with antibodies as noted. Blots were blocked for 1 hr at 37° C. in 1×TBST (0.05% Tween 20 in TBS) containing 5% w/v blotting grade dry milk (Bio-rad, Hercules, Calif., USA), incubated in primary antibody overnight in blocking buffer at 4° C., washed 3×10 min in TBST at room temperature, followed by incubation with secondary antibody, i.e., peroxidase-conjugated anti-mouse or anti rabbit IgG (Jackson ImmunoResearch Laboratories, West Grove, Pa., USA) diluted in blocking buffer. Blots were washed 3×10 min in TBST and immunoreactive protein bands were visualized with enhanced chemiluminescence (ECL) reagents (Pierce, Rockford, Ill., USA). The ECL films of the blots were scanned and analyzed using Multi Gauge software version 3.0 (Fujifilm, Tokyo, Japan).
The following primary antibodies were used: rabbit polyclonal anti-NFM (1:1000; Chemicon/Millipore, Billerica, Mass., USA); mouse monoclonal anti-NeuN, clone A60 (1:500; Millipore, Billerica, Mass., USA); rabbit polyclonal anti-Tuj-1, (3—III-tubulin (Covance; 1:800, Emeryville, Calif., USA); mouse monoclonal SMI 52 to the adult isoforms of MAP-2, MAP2a,b (1:1000; Covance, Emeryvilly, Calif., USA); rabbit polyclonal anti-Synapsin I (1:2000; Stressgen, Farmingdale, N.Y., USA); rabbit monoclonal anti-PSD95 (1:1000; Cell signaling, Danvers, Mass., USA); anti tau 92e (1:10000); mouse monoclonal anti-BDNF (1:1000; Calbiochem, Gibbstown, N.J., USA); rabbit polyclonal anti-TrkB (total) (1:500; Santa Cruz Biotechnology, Santa Cruz, Calif., USA); rabbit polyclonal anti-pTrkB (Tyr706) (1:400; Santa Cruz Biotechnology, Santa Cruz, Calif., USA), TrkC (1:1000; Cruz Biotechnology, Santa Cruz, Calif., USA); and pTrkY490 (1:500; Upstate USA Inc., Charlottesville, Va., USA). For loading control, the blots were developed with rabbit polyclonal antibody to GAPDH (1:2000; Santa Cruz Biotechnology, Santa Cruz, Calif., USA). […]

For another assay, the system named is BDNF and TrkB. Briefly: Induction of BDNF and TrkB expression after pre-treatment with CHX or K252a. As to conditions: two days of treatment. The format is cell-based, mouse. As to the method:
as §1
To evaluate whether the effect of B-5 and B-3 in induction of the expression of BDNF and TrkB was via the activation of the TrkB receptor and required signal transduction via TrkB and new protein synthesis, mouse embryonic E18 cultured hippocampal cells were pre-treated with the protein synthesis inhibitor, cycloheximide (CHX) or the Trk inhibitor K252a for 1 h, and then added Peptide B-5 at a concentration of 0.1 μM (the dose that gave the maximum induction of BDNF expression, FIGS. 5A and B) or BDNF 20 ng/ml as a positive control (FIG. 7C,D). A time course of these treatments was studied with Peptide B-5 or BDNF for 15 min, 60 min and two days.

The test system of assay [1] is mouse E18 primary hippocampal neurons. The assay is described as follows: Toxicity of the peptides: phase contrast morphology and LDH assay, 5 days treatment. The format is cell-based. As to conditions: 1 μM. The source says: To screen these peptides, primary neuronal cell cultures were used from embryonic day 18 (E18) C57BL/6 mouse hippocampus. At the fourth day in vitro (DIV), the culture medium was exchanged with the medium containing the peptides. The primary neuronal cultures were established as taught in the art (see, e.g., Cardenas-Aguayo Mdel, Santa-Olalla et al. 2003, hereby incorporate by reference). Briefly, C57BL/6 time pregnant E18 female mice from Charles River Labs were anesthetized and killed by cervical dislocation following our Institutional Animal Care and Use Committee (IACUC) regulations and approved protocol. Embryos were removed and placed in cold Hibernate A (available from Brain bits, Springfield, Ill., USA), and all of the following steps were performed in ice-cold Hibernate A, under a stereoscopic (dissection) microscope placed in a laminar flow hood. Fetal brains were removed carefully and fore brain were separated. Then, the hippocampus, including the cortex surrounding the area of the hippocampus, was dissected and cut into small pieces using microsurgical scissors. The cut tissue was transferred with number 5 forceps to 15 ml tubes containing 0.1% trypsin in Versene (Invitrogen Life Technologies, Grand Island, N.Y., USA) and incubated for 15 min at 37° C. followed by inactivation with 10% fetal bovine serum (FBS) in Neurobasal complete medium (Neurobasal Medium supplemented with 2×B-27, 0.30% glutamine, and penicillin/streptomycin 0.1 mg/ml and 0.1 U/ml respectively). All medium components were purchased from Invitrogen, Grand Island, N.Y., USA. […]
To study any toxic effect of the peptides, mouse E18 primary hippocampal neurons were treated with the five BDNF peptides individually for up to 5 days at different doses [5 nM, 25 nM, 50 nM (data not shown), 100 nM (0.1 μM), 1000 nM (1 μM), and 10,000 nM (10 μM)]. […] Accordingly, there was no significant change in the viability of cells treated with any of the peptides as evaluated by the lactate dehydrogenase (LDH) assay (see FIG. 2B). […]

Assay [2] deals with E18 primary hippocampal neurons. Briefly: Western blots of neuronal markers, densitometry. The class given is cell-based, mouse. As to conditions: 5 days. As to the method: as §2
(§3) The following primary antibodies were used: rabbit polyclonal anti-NFM (1:1000; Chemicon/Millipore, Billerica, Mass., USA); mouse monoclonal anti-NeuN, clone A60 (1:500; Millipore, Billerica, Mass., USA); rabbit polyclonal anti-Tuj-1, (3—III-tubulin (Covance; 1:800, Emeryville, Calif., USA); mouse monoclonal SMI 52 to the adult isoforms of MAP-2, MAP2a,b (1:1000; Covance, Emeryvilly, Calif., USA); rabbit polyclonal anti-Synapsin I (1:2000; Stressgen, Farmingdale, N.Y., USA); rabbit monoclonal anti-PSD95 (1:1000; Cell signaling, Danvers, Mass., USA); anti tau 92e (1:10000); mouse monoclonal anti-BDNF (1:1000; Calbiochem, Gibbstown, N.J., USA); rabbit polyclonal anti-TrkB (total) (1:500; Santa Cruz Biotechnology, Santa Cruz, Calif., USA); rabbit polyclonal anti-pTrkB (Tyr706) (1:400; Santa Cruz Biotechnology, Santa Cruz, Calif., USA), TrkC (1:1000; Cruz Biotechnology, Santa Cruz, Calif., USA); and pTrkY490 (1:500; Upstate USA Inc., Charlottesville, Va., USA). For loading control, the blots were developed with rabbit polyclonal antibody to GAPDH (1:2000; Santa Cruz Biotechnology, Santa Cruz, Calif., USA).
To biochemically study the effect of BDNF peptides in inducing expression of neuronal markers, protein samples were recovered from cells treated with peptides B-5, B-4, B-3, or vehicle for five days. As a positive control, protein samples were collected from cells treated with BDNF at 20 ng/ml (0.79 nM) or 100 ng/ml (3.95 nM) (FIG. 3D, E). Western blots of the cell lysates were developed with antibodies to Synapsin I (presynaptic marker), PSD95 (postsynaptic marker), NeuN (late neuronal marker), NFM (early neuronal marker), MAP2 (dendritic marker), 0-IIItubulin (early neuronal marker), and tau 92e (axonal marker).

The test system of another assay is BDNF. Briefly: BDNF expression, Western blot, 5 days treatment. The class given is cell-based, mouse. Particulars: vs control medium. As to the method: as §2, §3
To investigate the molecular mechanism by which the BDNF peptides promoted neurogenic/neurotrophic activities, the hippocampal primary cultured neurons were treated with the peptides or BDNF for five days and compared with the control medium treated cells.
(Immunoblotting shows a protein as a band on a membrane.)

T1 sequence (P15209 32-821): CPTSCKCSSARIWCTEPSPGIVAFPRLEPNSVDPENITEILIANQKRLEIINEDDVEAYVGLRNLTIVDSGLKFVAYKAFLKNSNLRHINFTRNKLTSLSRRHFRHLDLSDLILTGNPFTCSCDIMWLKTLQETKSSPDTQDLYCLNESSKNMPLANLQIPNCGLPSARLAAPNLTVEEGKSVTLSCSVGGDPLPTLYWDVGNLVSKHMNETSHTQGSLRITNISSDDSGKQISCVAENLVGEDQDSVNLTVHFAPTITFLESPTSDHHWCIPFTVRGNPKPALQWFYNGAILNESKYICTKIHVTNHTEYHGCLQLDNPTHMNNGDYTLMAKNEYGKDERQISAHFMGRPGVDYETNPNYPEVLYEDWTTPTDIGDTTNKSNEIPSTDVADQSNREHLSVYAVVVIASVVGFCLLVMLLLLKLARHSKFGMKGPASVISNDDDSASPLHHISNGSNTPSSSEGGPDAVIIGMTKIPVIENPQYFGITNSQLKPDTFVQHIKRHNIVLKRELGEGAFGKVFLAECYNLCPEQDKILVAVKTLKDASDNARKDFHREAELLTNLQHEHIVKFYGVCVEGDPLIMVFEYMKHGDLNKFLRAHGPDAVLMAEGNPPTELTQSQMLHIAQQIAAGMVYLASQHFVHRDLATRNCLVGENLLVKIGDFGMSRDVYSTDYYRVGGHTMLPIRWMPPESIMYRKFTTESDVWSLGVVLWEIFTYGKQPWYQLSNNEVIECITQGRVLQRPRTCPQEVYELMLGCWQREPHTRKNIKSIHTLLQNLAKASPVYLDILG

As to `COC(=O)[C@@]1(O)C[C@H]2O[C@]1(C)n1c3ccccc3c3c4c(c5c6ccccc6n2c5c31)C(=O)NC4` [Peptide K252a, reference compound], the “inhibition of the phosphorylation of TrkB at Tyrosine 706” value on TrkB receptor is on record as “clear inhibition”. In addition, the “block of the increase in expression of BDNF caused by BDNF peptides or BDNF” value in the assay with BDNF and TrkB (K252a pre-exposure 1 h (200 nM)) is “can be blocked”.

`C[C@@H]1C[C@@H]([C@H](O)CC2CC(=O)NC(=O)C2)C(=O)[C@@H](C)C1` [CHX, Cycloheximide, reference compound]: the “block of the increase in expression of BDNF caused by BDNF peptides or BDNF” value in the assay on BDNF and TrkB (CHX pre-exposure 1 h (100 μM)) was “can be blocked”.

For Ac-R-R-G-E-CONH2 [Peptide B-1], the “cell death (LDH assay) vs vehicle treated cells” value in assay [1] is recorded as “significant reduction in cell death”.

In the case of Ac-D-K-R-H-CONH2 [Peptide B-4], in assay [2] (0.1 μM), the “expression of NeuN (Western blot)” value was “increased the expression of NeuN” and the “expression of PSD95 (Western blot)” value was “significant increment”. Moreover, the “level of tau (92e antibody, Western blot)” value in assay [2] is “Neither BNDF nor peptides B-3, B-4 or B-5 had any significant effect”. In the assay on BDNF, the “expression of BDNF (Western blot)” value is reported as “induced the expression of BDNF”.

The values are drawn from patent US9512178B2, “Neurogenic brain-derived neurotrophic factor peptides” (Research Foundation for Mental Hygiene, Inc., priority 2012, dated 2016).
